{"source": "patent US20180021320A1", "about": "“Method of Preventing or Treating Hearing Loss” (SUPPORT-VENTURE GMBH, priority 2015, published 2018)", "key": {"[1]": {"test_system": "hair cells of mouse OC's in culture", "assay": "Protection against gentamicin-induced hair cell loss in mouse organ of Corti explants", "format": "cell-based", "conditions": "24 h; for loss of hair cells: 50 μM gentamicin alone", "protocol": "(§1) OCs were harvested then placed in culture medium [Dulbecco's Modified Eagle Medium supplemented with 10% FCS, 25 mM HEPES and 30 U/ml penicillin (Invitrogen, Carlsbad, Calif., USA)] and incubated for 24 hours at 37° C. in an atmosphere of 95% O2/5% CO2. After that period, the culture medium was replaced with fresh medium containing no compound or 200 μM gentamycin alone or 200 μM gentamicin with either 2 or 10 μM pioglitazone, and incubated for a further 48 hours at 37° C. Ten OC explants were used for each treatment condition.\n(§2) After incubation with compounds, the OCs were fixed in 4% paraformaldehyde, washed and then stained with a fluorescein (FITC)-conjugated phalloidin to detect inner and outer hair cells. After staining, the OCs were visualized and photographed using a fluorescence microscope (Olympus FSX100). Outer and inner hair cells were separately quantitated for the apical, basal, and middle turn of each organ of Corti. The values for each turn were averaged for the 10 OCs used for each condition. Significant differences between treatment groups in numbers OHC and IHC were determined using analysis of variance (ANOVA) followed by the least significant difference (LSD) post-hoc test (Stat View 5.0). Differences associated with P-values of less than 0.05 were considered to be statistically significant. All data are presented as mean±SD.\nMethods were similar to those in Example 1. The main differences were that mouse OC's were used rather than rat OC's. Moreover, treatment was performed for 24 hrs with 50 μM gentamicin. The number of OC's used for each experimental condition was 3-5. The concentrations of test substances were 2 μM and 10 μM for tesaglitazar and muraglitazar, and 25 μM and 150 μM for fenofibric acid."}, "[2]": {"test_system": "hair cells of organ of Corti (OC) explants", "assay": "Protection against gentamicin-induced hair cell loss in rat organ of Corti explants", "format": "cell-based, Sprague-Dawley rats", "protocol": "All animal procedures were carried out according to protocols approved by the Kantonales Veterinäramt, Basel, Switzerland. Postnatal day 5 (p5) Sprague-Dawley rats were used for the studies. Studies were performed in vitro, using organ of Corti (OC) explants from p5 animals. Animals were sacrificed and the cochleae carefully dissected to separate the organ of Corti from the spiral ganglion, stria vascularis and Reissner's membrane [Sobkowicz H M, Loftus J M, Slapnick S M. Acta Otolaryngol Suppl. 1993; 502:3-36].\nas §1, §2"}, "[3]": {"test_system": "noise-induced hearing loss", "assay": "Protection against noise-induced hearing loss, auditory brainstem response (ABR)", "format": "in vivo, guinea pigs", "conditions": "for threshold shift (ABR), mean±SD: single 40 μl round window application day before noise", "from_the_text": "The guinea pig model is the preferred animal species in hearing research. The agent application as well as the noise trauma was applied under general anesthesia. Upon arrival, animals underwent an acclimatization period of at least one week prior to experiments.\nGuinea pigs were first anaesthetized and hearing evaluated by a standard ABR method then into treatment groups. Each animal received a single round window application of test substance to both ears. The following day, animals were exposed to 115 dB broad band noise for 2 hrs under anaesthesia. At one and two weeks following noise exposure, the animals underwent a second hearing evaluation.\nAnimals were dosed with a single 40 μl application of pioglitazone formulation or matching vehicle, onto the cochlear round window in both ears the day prior to noise exposure. For this approach, a hole was drilled in the rostral part of the skull to directly access the Bulla which allows drug application to the round window under visual control.\nAnimals were noise-exposed in a soundproof chamber (0.8×0.8×0.8 m, minimal attenuation 60 dB) for 2 h to broadband white noise (5-20 kHz) at 115 dB sound pressure level (SPL) under anaesthesia (60 mg/kg ketamine and 6 mg/kg xylazine). Noise was delivered binaurally by loudspeakers (HTC 11.19; Visaton, Haan, Germany) placed above the animal's head. The speakers were connected to an audio amplifier (Tangent AMP-50; Aulum, Denmark) and a DVD player.\nAt baseline before the noise exposure and on day 7 and 14 after noise, frequency-specific (2; 4; 8; 12; 16; 20; 24; 28; 32; 36; 40 kHz) auditory brainstem responses (ABR) were recorded in all treated animals and in controls. Auditory stimuli were delivered binaurally at different SPLs with a sinusoid generator (Model SSU2; Werk Fernmeldewesen, Berlin, Germany). Frequency output was controlled and adjusted with a digital counter (1941A Digital Counter; Fluke, Scarborough, Ontario, Canada). Sub-dermal needle electrodes were placed at the vertex (active), mastoid (reference), and in one foot (ground). ABR recordings were carried out with a Viking IV-measurement system (Viasys Healthcare, Conshohocken, Pa.). The brainstem responses were amplified (100,000×), filtered (bandpass 0.15-3 kHz), and averaged (300×) by the Viking IV-system. The amplitudes of the ABR waves were measured at different sound intensities by changing the attenuation of signal amplification. The amplitude-growth function was calculated for each tested frequency, and a linear regression was fitted to the linear portion of the data. The hearing threshold could be calculated for each frequency by extrapolating the linear amplitude-grow function of the regression line to zero. […]"}, "[4]": {"conditions": "2 μM test substance with 50 μM gentamicin"}, "[5]": {"conditions": "10 μM test substance with 50 μM gentamicin"}, "[6]": {"conditions": "concentration not stated, 50 μM gentamicin, medio-basal turns"}}, "note": "“Also recorded” adds a separate entry of the source.", "data": [{"compound": "COc1ccc(OC(=O)N(CC(=O)O)Cc2ccc(OCCc3nc(-c4ccccc4)oc3C)cc2)cc1", "note": "[Muraglitazar]", "values": [{"measurement": "protection from gentamicin-dependent hair cell loss", "setting": "[1]; [4]", "result": "not effective"}, {"measurement": "protection from gentamicin-dependent hair cell loss", "setting": "[1]; [5]", "result": "partially protective"}, {"measurement": "protection from gentamicin-dependent hair cell loss", "setting": "[1]; [6]", "result": "protected from gentamicin-dependent hair cell loss; also recorded: significantly prevent gentamicin-dependent hair cell loss"}]}, {"compound": "CCc1ccc(CCOc2ccc(CC3SC(=O)NC3=O)cc2)nc1", "note": "(stereo not drawn) [Pioglitazone, pioglitazone]", "values": [{"measurement": "prevention of gentamicin-dependent hair cell loss (IHC and OHC; apical, basal, middle turns)", "setting": "[2]; 2 μM pioglitazone with 200 μM gentamicin, 48 h", "result": "significantly prevent gentamicin-dependent hair cell loss in all turns"}, {"measurement": "prevention of gentamicin-dependent hair cell loss (IHC and OHC; apical, basal, middle turns)", "setting": "[2]; 2 μM pioglitazone with 200 μM gentamicin, 48 h, listed as pioglitazone", "result": "completely prevent gentamicin-dependent hair cell loss in all turns"}, {"measurement": "prevention of gentamicin-dependent hair cell loss (IHC and OHC; apical, basal, middle turns)", "setting": "[2]; 10 μM pioglitazone with 200 μM gentamicin, 48 h", "result": "significantly prevent gentamicin-dependent hair cell loss in all turns"}, {"measurement": "prevention of gentamicin-dependent hair cell loss (IHC and OHC; apical, basal, middle turns)", "setting": "[2]; 10 μM pioglitazone with 200 μM gentamicin, 48 h, listed as pioglitazone", "result": "completely prevent gentamicin-dependent hair cell loss in all turns"}, {"measurement": "prevention of gentamicin-dependent hair cell loss", "setting": "[2]; pioglitazone co-treatment, concentration not stated, 48 h", "result": "almost completely preventing gentamicin-dependent hair cell loss"}, {"measurement": "reduction in the threshold shifts vs. vehicle controls", "setting": "[3]; hearing recorded 7-14 days after noise trauma", "result": "> 50", "unit": "%"}, {"measurement": "threshold shift (ABR), mean±SD", "setting": "[3]; one week after noise (115 dB, 2 h), 5-20 kHz", "result": "12.7±1.3", "unit": "dB"}, {"measurement": "protection from noise-induced hearing loss", "setting": "[3]; one week after noise, vs. vehicle", "result": "approximately 60%"}, {"measurement": "threshold shift (ABR), mean±SD", "setting": "[3]; two weeks after noise (115 dB, 2 h)", "result": "6.3±3.9", "unit": "dB"}]}, {"compound": "Tesaglitazar", "values": [{"measurement": "protection from gentamicin-dependent hair cell loss", "setting": "[1]; [4]", "result": "able to antagonize the effects of gentamicin and to preserve hair cell number and morphology"}, {"measurement": "protection from gentamicin-dependent hair cell loss", "setting": "[1]; [5]", "result": "able to antagonize the effects of gentamicin and to preserve hair cell number and morphology"}, {"measurement": "protection from gentamicin-dependent hair cell loss", "setting": "[1]; [6]", "result": "protected from gentamicin-dependent hair cell loss; also recorded: significantly prevent gentamicin-dependent hair cell loss"}]}, {"compound": "fenofibric acid", "values": [{"measurement": "protection from gentamicin-dependent hair cell loss", "setting": "[1]; 25 μM test substance with 50 μM gentamicin", "result": "not effective"}, {"measurement": "protection from gentamicin-dependent hair cell loss", "setting": "[1]; 150 μM test substance with 50 μM gentamicin", "result": "completely protective"}, {"measurement": "protection from gentamicin-dependent hair cell loss", "setting": "[1]; [6]", "result": "protected from gentamicin-dependent hair cell loss; also recorded: significantly prevent gentamicin-dependent hair cell loss"}]}, {"compound": "gentamicin", "values": [{"measurement": "loss of hair cells", "setting": "[1]", "result": "approximately 50%"}, {"measurement": "loss of hair cells", "setting": "[1]; listed as Gentamicin", "result": 50, "unit": "%"}, {"measurement": "reduction of hair cell number", "setting": "[2]; 200 μM gentamicin alone, 48 h in culture, each segment", "result": "50-70%"}]}]}
